Results: paper PMC5653814, “Regiospecific Synthesis of Ring A Fused Withaferin A Isoxazoline Analogues: Induction of Premature Senescence by W-2b in Proliferating Cancer Cells” (Scientific Reports, 2017)
Read-outs that look alike come from different tables or passages of the source.

Tests used:
MCF7 cells [1] = assay: SA-β-gal activity assay, MCF7; type: cell-based, human; settings: MCF7, five days; doxorubicin 100 nM, WA 2–3 µM
Method: (§1) The procedure was followed as described previously with some modifications. Briefly, MCF7 and HCT-116 cells (0.4 × 10^6 per well) were seeded in six-well plates and treated with indicated concentrations of W-2b along with WA, vehicle and positive control doxorubicin for five days. Cells were accordingly washed twice with PBS, fixed with 4% paraformaldehyde for 5 min, rinsed twice with PBS and incubated with freshly prepared staining solution (40 mM citric acid/Na phosphate buffer, 5 mM K4[Fe(CN)6] 3H2O, 5 mM K3[Fe(CN)6], 150 mM sodium chloride, 2 mM magnesium chloride and 1 mg/ml X-gal in distilled water, pH 6.0) for 48 h at 37 °C. Stained cells were thoroughly washed and air dried in dark. Cells were then observed under bright field microscope (NIKON) for the SA-β-gal positive cells and images were captured at 20x magnification.

HCT-116 cells [2] = assay: SA-β-gal activity assay, HCT-116; type: cell-based, human; settings: HCT-116, five days; doxorubicin 100 nM, WA 2–3 µM
Method: as §1

[3] = MTT cell viability assay, fR2 normal breast epithelial cells; type: cell-based, human; settings: human, fR2 normal breast epithelial cells, read-out: Cytotoxicity IC50, fR2
Method: (§2) The cell viability assay was performed according to the procedure previously described with minor modifications. Briefly, MCF7, HCT-116 and fR2 cells were plated in 96 well plates at a density of 5 × 10^3 cells per well and incubated overnight. […] MTT dye solution (2.5 mg/mL) was introduced to the cells in medium 4 h before the completion of the treatment period and the formed formazan crystals were solubilized with DMSO. Optical density was measured with the help of a UV-visible spectrophotometer coupled with microplate reader (TECAN, Infinite M200 Pro), the percent inhibition was calculated and IC50 values were determined with the help of GraphPad Prism software (GraphPad software Inc. CA, USA).
(§3) Data were expressed as the mean ± standard deviation of three independent experiments performed and analyzed by Student’s t-test. IC50 values were determined with the help of GraphPad Prism software Version 5.0 (GraphPad Software, Inc., USA) by taking the log of inhibitor vs. response. A 2-sided value of *P < 0.05 was considered significant in all cases.

MCF7 cells [4] = assay: MTT cell viability assay, MCF7; type: cell-based, human; settings: read-out: Cytotoxicity IC50, MCF7
Method: as §2, §3

HCT-116 cells [5] = assay: MTT cell viability assay, HCT-116; type: cell-based, human; settings: read-out: Cytotoxicity IC50, HCT-116
Method: as §2, §3

[6] = tested on: 4T1 mouse mammary carcinoma; assay: In vivo tumor growth, 4T1 mouse mammary carcinoma model; settings: 25 mg/kg b.w. intraperitoneal, each alternate day for two weeks
Method: The experiment was performed according to the pre-standardized protocol with minor modifications. To evaluate the in vivo anti-tumor efficacy of W-2b, healthy female Balb/c mice (25–30 g) were taken. Animals were randomized into three groups, and six animals were taken per group. For the tumor cells implantation, mouse mammary carcinoma 4T1 cells (1 × 10^6 per 200 μL) diluted in serum-free RPMI medium were injected subcutaneously into the mammary pad of each mouse around the second right mammary gland. A week after tumor cell implantation, when the palpable mammary tumors develop, mice were injected intraperitoneally with either vehicle (normal saline) or 5-FU (25 mg/kg/b.w.) or W-2b (25 mg/kg/b.w.) in each alternative day for two weeks. Tumor sizes were measured in each alternate day after tumor cell injection, and the body weight was recorded once in a week. Mice were sacrificed on the 15th day after treatment initiation, and tumors were dissected out carefully from the mammary pad area.

fR2 cells = assay: MTT cell viability assay, fR2 normal breast epithelial cells; type: cell-based, human; settings: 48 h, read-out: Cytotoxicity IC50, fR2
Method: as §2, §3

[7] = Homo sapiens, HCT-116, 48 h, 48 h

Compound	IC50 at 48 h [3] [µM]	IC50 (MCF7 cells [4]; Homo sapiens, MCF7, 48 h, 48 h) [µM]	IC50 (HCT-116 cells [5]; [7]) [µM]	IC50 (MCF7 cells [4]; 48 h) [µM]	IC50 (HCT-116 cells [5]; 48 h) [µM]	other results
COc1cccc2c1C(=O)c1c(O)c3c(c(O)c1C2=O)C[C@@](O)(C(=O)CO)C[C@@H]3O[C@H]1C[C@H](N)[C@H](O)[C@H](C)O1 [doxorubicin]						SA-β-gal staining, senescent cells (in words) (MCF7 cells [1]): substantial increase in the number of cells with distinct senescence phenotype; SA-β-gal staining, senescent cells (in words) (HCT-116 cells [2]): substantial increase in the number of cells with distinct senescence phenotype
CC1=C(CO)C(=O)O[C@@H]([C@@H](C)[C@H]2CC[C@H]3[C@@H]4C[C@H]5O[C@]56[C@@H](O)C=CC(=O)[C@]6(C)[C@H]4CC[C@]23C)C1 [WA, Withaferin A]	43.3 ± 3.77	1.75 ± 0.376	2.58 ± 0.415			IC50 at 24 h ([3]; 24 h): 51.1 ± 5.18 µM; IC50 at 72 h ([3]; 72 h): 38.3 ± 5.22 µM; SA-β-gal staining, senescent cells (in words) (MCF7 cells [1]): very less number of senescent cells; SA-β-gal staining, senescent cells (in words) (HCT-116 cells [2]): very less number of senescent cells; IC50 (MCF7 cells [4]; Homo sapiens, MCF7, 24 h, 24 h): 9.18 ± 1.36 µM; IC50 (MCF7 cells [4]; Homo sapiens, MCF7, 72 h, 72 h): 1.46 ± 0.291 µM; IC50 (HCT-116 cells [5]; Homo sapiens, HCT-116, 24 h, 24 h): 4.38 ± 1.67 µM; IC50 (HCT-116 cells [5]; Homo sapiens, HCT-116, 72 h, 72 h): 2.13 ± 0.55 µM
O=c1[nH]cc(F)c(=O)[nH]1 [5-FU, 5-fluorouracil, reference compound]						Inhibition in tumor volume ([6]; Balb/c mice): 78.4%; Inhibition in tumor weight ([6]; vs normal saline group): 86.7%
CC1=C(CO)C(=O)OC(C(C)C2CCC3C4CC5OC56C(O)C5ON=C(c7ccc([N+](=O)[O-])cc7)C5C(=O)C6(C)C4CCC23C)C1 (stereo not drawn) [W-2a, 4-nitrophenyl-2-isoxazoline withaferin A]	52.1 ± 6.6			5.82 ± 0.418	8.2 ± 0.211	
CC(=O)OCC1=C(C)C[C@H]([C@@H](C)C2CCC3C4C[C@H]5O[C@]56[C@@H](OC(C)=O)[C@@H]5ON=C(c7ccc(F)cc7)[C@@H]5C(=O)[C@]6(C)C4CC[C@@]32C)OC1=O (stereo partly drawn) [W-12b, 4-fluorophenyl-2-isoxazoline 4,27-acetylwithaferin A]	75.6 ± 4.82	26.9 ± 2.22	5.29 ± 0.151			
CC1=C(CO)C(=O)OC(C(C)C2CCC3C4CC5OC56C(O)C5ON=C(c7ccc(C(F)(F)F)cc7)C5C(=O)C6(C)C4CCC23C)C1 (stereo not drawn) [W-11a, 4-trifluorophenyl-2-isoxazoline withaferin A]	> 100	> 100			24.5 ± 2.55	
CC1=C(CO)C(=O)OC(C(C)C2CCC3C4CC5OC56C(O)C5ON=C(c7ccncc7)C5C(=O)C6(C)C4CCC23C)C1 (stereo not drawn) [W-5b, pyridenyl-2-isoxazoline withaferin A]				9.7 ± 0.55	42.4 ± 3.19	IC50 (fR2 cells): 91.2 ± 7.33 µM
CC1=C(CO)C(=O)OC(C(C)C2CCC3C4CC5OC56C(O)C5ON=C(c7ccc(F)cc7)C5C(=O)C6(C)C4CCC23C)C1 (stereo not drawn) [W-4b, 4-fluorophenyl-2-isoxazoline withaferin A]	> 100	> 100			> 100	
CC1=C(CO)C(=O)OC(C(C)C2CCC3C4CC5OC56C(O)C5ON=C(c7ccccc7C(F)(F)F)C5C(=O)C6(C)C4CCC23C)C1 (stereo not drawn) [W-8a, 2-trifluoromethylphenyl-2-isoxazoline withaferin A]	28.2 ± 4.21	17.6 ± 1.68	7.5 ± 1.13			
CC1=C(CO)C(=O)OC(C(C)C2CCC3C4CC5OC56C(O)C5ON=C(c7c(Cl)cccc7Cl)C5C(=O)C6(C)C4CCC23C)C1 (stereo not drawn) [W-10a, 2,6-dichlorophenyl-2-isoxazoline withaferin A]	98.1 ± 7.18	58.3 ± 3.24	5.28 ± 0.561			
CC1=C(CO)C(=O)OC(C(C)C2CCC3C4CC5OC56C(O)C5ON=C(c7ccc(C(F)(F)F)cc7)C5C(=O)C6(C)C4CCC23C)C1 (stereo not drawn) [W-11b, 4-trifluorophenyl-2-isoxazoline withaferin A]				83.3 ± 6.51	4.16 ± 0.344	IC50 (fR2 cells): > 100 µM
COc1cc(C(F)(F)F)ccc1C1=NOC2C1C(=O)C1(C)C3CCC4(C)C(C(C)C5CC(C)=C(CO)C(=O)O5)CCC4C3CC3OC31C2O (stereo not drawn) [W-9b, 2-methoxy-4-trifluorophenyl-2-isoxazoline withaferin A]	66.2 ± 7.63	> 100	15.8 ± 3.31			
COc1ccc(Br)cc1C1=NOC2C1C(=O)C1(C)C3CCC4(C)C(C(C)C5CC(C)=C(CO)C(=O)O5)CCC4C3CC3OC31C2O (stereo not drawn) [W-7a, 3-bromo-6-methoxyphenyl-2-isoxazoline withaferin A]	> 100	70.6 ± 5.18	8.1 ± 1.66			
CC1=C(CO)C(=O)OC(C(C)C2CCC3C4CC5OC56C(O)C5ON=C(c7ccc(Br)cc7)C5C(=O)C6(C)C4CCC23C)C1 (stereo not drawn) [W-3a, 4-bromophenyl-2-isoxazoline withaferin A]	> 100			95.5 ± 5.41	45.8 ± 2.34	
CC1=C(CO)C(=O)O[C@@H]([C@@H](C)C2CCC3C4C[C@H]5O[C@]56[C@@H](O)[C@@H]5ON=C(c7ccc(Cl)cc7)[C@@H]5C(=O)[C@]6(C)C4CC[C@@]32C)C1 (stereo partly drawn) [W-1b, 4-chlorophenyl-2-isoxazoline withaferin A]	39.2 ± 3.81	1.64 ± 0.267	16.2 ± 0.676			
CC1=C(CO)C(=O)OC(C(C)C2CCC3C4CC5OC56C(O)C5ON=C(c7ccc(F)cc7)C5C(=O)C6(C)C4CCC23C)C1 (stereo not drawn) [W-4a, 4-fluorophenyl-2-isoxazoline withaferin A]				> 100	19.6 ± 1.81	IC50 (fR2 cells): > 100 µM
CC1=C(CO)C(=O)OC(C(C)C2CCC3C4CC5OC56C(O)C5ON=C(c7ccc(Br)cc7)C5C(=O)C6(C)C4CCC23C)C1 (stereo not drawn) [W-3b, 4-bromophenyl-2-isoxazoline withaferin A]				1.82 ± 0.33	15.9 ± 1.67	IC50 (fR2 cells): 85.3 ± 9.5 µM
CC1=C(CO)C(=O)OC(C(C)C2CCC3C4CC5OC56C(O)C5ON=C(c7ccc(Cl)cc7Cl)C5C(=O)C6(C)C4CCC23C)C1 (stereo not drawn) [W-6a]	> 100			2.28 ± 0.265	> 100	
CC1=C(CO)C(=O)O[C@@H]([C@@H](C)C2CCC3C4C[C@H]5O[C@]56[C@@H](O)[C@H]5ON=C(c7ccc(Cl)cc7)[C@H]5C(=O)[C@]6(C)C4CC[C@@]32C)C1 (stereo partly drawn) [W-1a, 4-chlorophenyl-2-isoxazoline withaferin A]	45.8 ± 5.19	3.8 ± 0.378	5.62 ± 0.412			
CC1=C(CO)C(=O)OC(C(C)C2CCC3C4CC5OC56C(O)C5ON=C(c7ccncc7)C5C(=O)C6(C)C4CCC23C)C1 (stereo not drawn) [W-5a, pyridenyl-2-isoxazoline withaferin A]	> 100		63.8 ± 5.43	3.52 ± 0.185		
